Reference: patent publication US8580965B2, “Substituted sulfonamide compounds” (Gruenenthal GmbH, priority 2006, dated 2013)

Columns and labels:
[1] = biological target: T1, human B1R receptor (bradykinin 1 receptor) (Homo sapiens, UniProt P46663); assay: FLIPR Ca2+ assay (Fluo-4) on CHO K1 cells stably transfected with the human B1R gene; % activation and % inhibition at 10 μM; format: cell-based; settings: CHO-K1, test substance 10 μM; CHO K1 hB1R cells; Ca2+ inflow after 0.5 nM Lys-Des-Arg9-bradykinin; read-out: B1R antagonism, human [10 μM] % inhibition
T1 construct: host or cells: CHO K1 cells (hB1R cells)
T1 sequence (P46663 1-353): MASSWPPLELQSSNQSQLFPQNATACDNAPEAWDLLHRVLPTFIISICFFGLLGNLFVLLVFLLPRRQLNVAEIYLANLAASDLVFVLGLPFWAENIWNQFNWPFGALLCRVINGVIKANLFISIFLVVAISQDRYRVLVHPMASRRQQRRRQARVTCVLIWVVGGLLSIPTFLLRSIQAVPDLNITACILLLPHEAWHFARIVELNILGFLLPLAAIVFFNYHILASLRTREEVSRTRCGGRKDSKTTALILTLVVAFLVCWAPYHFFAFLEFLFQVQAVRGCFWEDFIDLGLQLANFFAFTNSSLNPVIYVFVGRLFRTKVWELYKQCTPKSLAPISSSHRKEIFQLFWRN
Method in brief: (§1)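 CHO K1 cells stably expressing human or rat B1R, Fluo-4 loaded, read by FLIPR (peak fluorescence). Compound at 10 µM first gives % activation versus agonist; after 10 min, agonist (human: 0.5 nM Lys-Des-Arg9-bradykinin; rat: 100 nM Des-Arg9-bradykinin) gives % inhibition relative to maximal inhibition.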

[2] = biological target: T2, B1R receptor of the rat (bradykinin 1 receptor) (Rattus norvegicus, UniProt P97583); assay: FLIPR Ca2+ assay (Fluo-4) on CHO K1 cells stably transfected with the B1R gene of the rat; % activation and % inhibition at 10 μM; format: cell-based; settings: CHO-K1, test substance 10 μM; CHO K1 rB1R cells; Ca2+ inflow after 100 nM Des-Arg9-bradykinin; read-out: B1R antagonism, rat [10 μM] % inhibition
T2 construct: host or cells: CHO K1 cells (rB1R cells)
T2 sequence (P97583 1-337): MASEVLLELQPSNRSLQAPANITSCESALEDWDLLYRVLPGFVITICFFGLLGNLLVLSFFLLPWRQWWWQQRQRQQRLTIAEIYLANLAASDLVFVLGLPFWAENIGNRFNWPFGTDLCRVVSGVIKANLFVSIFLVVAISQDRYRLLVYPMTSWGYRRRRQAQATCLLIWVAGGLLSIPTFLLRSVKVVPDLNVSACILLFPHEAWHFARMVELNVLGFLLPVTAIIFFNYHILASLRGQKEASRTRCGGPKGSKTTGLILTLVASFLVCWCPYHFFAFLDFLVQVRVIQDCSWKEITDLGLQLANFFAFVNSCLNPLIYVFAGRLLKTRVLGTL
Method in brief: as §1

Row | Structure (SMILES) | inhibition at 10 µM [1] [%] | inhibition at 10 µM [2] [%]
1 | COc1cc(C)c(S(=O)(=O)N2CCCCC2COCC(=O)N2CCC(O)(Cc3ccccc3)CC2)c(C)c1 (stereo not shown) [Example 245, 1-(4-benzyl-4-hydroxypiperidin-1-yl)-2-((1-(4-methoxy-2,6-dimethylphenylsulfonyl)piperidin-2-yl)methoxy)ethanone] | 99.8 | 97.7
2 | COc1cc(C)c(S(=O)(=O)N2CCCCC2COCC(=O)N2CCC(O)(c3ccc(Cl)c(C(F)(F)F)c3)CC2)c(C)c1 (stereo not shown) [Example 246, 1-(4-(4-chloro-3-(trifluoromethyl)phenyl)-4-hydroxypiperidin-1-yl)-2-((1-(4-methoxy-2,6-dimethylphenylsulfonyl)piperidin-2-yl)methoxy)ethanone] | 103 | 99
3 | O=C(COCC1CCN(S(=O)(=O)c2c(Cl)cc(Cl)cc2Cl)C1)N1CCC(O)(Cc2ccccc2)CC1 (stereo not shown) [Example 248, 1-(4-benzyl-4-hydroxypiperidin-1-yl)-2-((1-(2,4,6-trichlorophenylsulfonyl)pyrrolidin-3-yl)methoxy)ethanone] | 40 | 85.1
4 | O=C(COC1CCCN(S(=O)(=O)c2c(Cl)cc(Cl)cc2Cl)C1)N1CCC(O)(Cc2ccccc2)CC1 (stereo not shown) [Example 249, 1-(4-benzyl-4-hydroxypiperidin-1-yl)-2-(1-(2,4,6-trichlorophenylsulfonyl)piperidin-3-yloxy)ethanone] | 70.8 | 87.3
5 | O=C(COC1CCCN(S(=O)(=O)c2c(Cl)cc(Cl)cc2Cl)C1)N1CCC(O)(c2ccc(Cl)c(C(F)(F)F)c2)CC1 (stereo not shown) [Example 250, 1-(4-(4-chloro-3-(trifluoromethyl)phenyl)-4-hydroxypiperidin-1-yl)-2-(1-(2,4,6-trichlorophenylsulfonyl)piperidin-3-yloxy)ethanone] | 18 | 76.3
6 | COc1cc(C)c(S(=O)(=O)N2CCCC(COCC(=O)N3CCC(O)(c4ccc(Cl)cc4)CC3)C2)c(C)c1 (stereo not shown) [Example 251, 1-(4-(4-chlorophenyl)-4-hydroxypiperidin-1-yl)-2-((1-(4-methoxy-2,6-dimethylphenylsulfonyl)piperidin-3-yl)methoxy)ethanone] | 47.8 | 92.9
7 | COc1cc(C)c(S(=O)(=O)N2CCCC(COCC(=O)N3CCC(O)(Cc4ccccc4)CC3)C2)c(C)c1 (stereo not shown) [Example 252, 1-(4-benzyl-4-hydroxypiperidin-1-yl)-2-((1-(4-methoxy-2,6-dimethylphenylsulfonyl)piperidin-3-yl)methoxy)ethanone] | 32.7 | 100
8 | O=C(COCC1CCCN(S(=O)(=O)c2c(Cl)cc(Cl)cc2Cl)C1)N1CCC(O)(c2ccc(Cl)cc2)CC1 (stereo not shown) [Example 254, 1-(4-(4-chlorophenyl)-4-hydroxypiperidin-1-yl)-2-((1-(2,4,6-trichlorophenylsulfonyl)piperidin-3-yl)methoxy)ethanone] | 62.5 | 36.8
9 | O=C(COCC1CCCN(S(=O)(=O)c2c(Cl)cc(Cl)cc2Cl)C1)N1CCC(O)(c2ccccc2)CC1 (stereo not shown) [Example 255, 1-(4-hydroxy-4-phenylpiperidin-1-yl)-2-((1-(2,4,6-trichlorophenylsulfonyl)piperidin-3-yl)methoxy)ethanone] | 82.5 | 73.7
10 | Cc1cc(S(=O)(=O)N(C)CCOCC(=O)N2CCC(O)(c3ccc(Cl)cc3)CC2)c(C)s1 [Example 256, N-(2-(2-(4-(4-chlorophenyl)-4-hydroxypiperidin-1-yl)-2-oxoethoxy)ethyl)-N,2,5-trimethylthiophene-3-sulfonamide] | 56.3 | 90.7
11 | Cc1cc(S(=O)(=O)N(C)CCOCC(=O)N2CCC(O)(c3ccc(Br)cc3)CC2)c(C)s1 [Example 257, N-(2-(2-(4-(4-bromophenyl)-4-hydroxypiperidin-1-yl)-2-oxoethoxy)ethyl)-N,2,5-trimethylthiophene-3-sulfonamide] | 49.4 | 101
12 | Cc1cc(S(=O)(=O)N(C)CCOCC(=O)N2CCC(O)(c3cccc(C(F)(F)F)c3)CC2)c(C)s1 [Example 258, N-(2-(2-(4-hydroxy-4-(3-(trifluoromethyl)phenyl)piperidin-1-yl)-2-oxoethoxy)ethyl)-N,2,5-trimethylthiophene-3-sulfonamide] | 71.5 | 96.1
13 | Cc1cc(S(=O)(=O)N(C)CCOCC(=O)N2CCC(O)(c3ccc(Cl)c(C(F)(F)F)c3)CC2)c(C)s1 [Example 259, N-(2-(2-(4-(4-chloro-3-(trifluoromethyl)phenyl)-4-hydroxypiperidin-1-yl)-2-oxoethoxy)ethyl)-N,2,5-trimethylthiophene-3-sulfonamide] | 94 | 93.3
14 | CN(CCOCC(=O)N1CCC(O)(c2ccc(Cl)cc2)CC1)S(=O)(=O)c1cc(Cl)sc1Cl [Example 260, 2,5-dichloro-N-(2-(2-(4-(4-chlorophenyl)-4-hydroxypiperidin-1-yl)-2-oxoethoxy)ethyl)-N-methylthiophene-3-sulfonamide] | 73.1 | 91.1

More lines, now with the values ahead:

Row | inhibition at 10 µM [1] [%] | inhibition at 10 µM [2] [%] | Structure (SMILES)
15 | 87.8 | 98.5 | CN(CCOCC(=O)N1CCC(O)(c2ccc(Br)cc2)CC1)S(=O)(=O)c1cc(Cl)sc1Cl [Example 261, N-(2-(2-(4-(4-bromophenyl)-4-hydroxypiperidin-1-yl)-2-oxoethoxy)ethyl)-2,5-dichloro-N-methylthiophene-3-sulfonamide]
16 | 73.6 | 94.2 | CN(CCOCC(=O)N1CCC(O)(c2cccc(C(F)(F)F)c2)CC1)S(=O)(=O)c1cc(Cl)sc1Cl [Example 262, 2,5-dichloro-N-(2-(2-(4-hydroxy-4-(3-(trifluoromethyl)phenyl)piperidin-1-yl)-2-oxoethoxy)ethyl)-N-methylthiophene-3-sulfonamide]
17 | 42.9 | 70.5 | CN(CCOCC(=O)N1CCC(O)(c2ccc(Cl)c(C(F)(F)F)c2)CC1)S(=O)(=O)c1cc(Cl)sc1Cl [Example 263, 2,5-dichloro-N-(2-(2-(4-(4-chloro-3-(trifluoromethyl)phenyl)-4-hydroxypiperidin-1-yl)-2-oxoethoxy)ethyl)-N-methylthiophene-3-sulfonamide]
18 | 64.5 | 4.5 | COc1cc(C)cc(C)c1S(=O)(=O)N1CCC(OCC(=O)N2CCC(O)(c3ccc(Br)cc3)CC2)C1 (stereo not shown) [Example 264, 1-(4-(4-bromophenyl)-4-hydroxypiperidin-1-yl)-2-(1-(2-methoxy-4,6-dimethylphenylsulfonyl)pyrrolidin-3-yloxy)ethanone]
19 | 54.1 | 29.5 | COc1cc(C)cc(C)c1S(=O)(=O)N1CCC(OCC(=O)N2CCC(O)(Cc3ccccc3)CC2)C1 (stereo not shown) [Example 265, 1-(4-benzyl-4-hydroxypiperidin-1-yl)-2-(1-(2-methoxy-4,6-dimethylphenylsulfonyl)pyrrolidin-3-yloxy)ethanone]
20 | 21.9 | 78.6 | O=C(COCC1CCCN1S(=O)(=O)c1cc(Cl)sc1Cl)N1CCC(O)(c2cccs2)CC1 (stereo not shown) [Example 266, 2-((1-(2,5-dichlorothiophen-3-ylsulfonyl)pyrrolidin-2-yl)methoxy)-1-(4-hydroxy-4-(thiophen-2-yl)piperidin-1-yl)ethanone]
